ChEMBL document CHEMBL4507269, “Data for DCP probe BAY-386” (2021)

Experiments:
[1] = target: Tyrosine-protein kinase Srms (Homo sapiens) (UniProt Q9H3Y6); settings: Compound concentration 1000.0 nM
[2] = target: T1, Muscarinic acetylcholine receptor M1 (Homo sapiens) (UniProt P11229); assay: M1 (h) Eurofins-Cerep Cellular and Nuclear Receptor Functional Assays; settings: Compound concentration 10.0 uM
T1 sequence (whole entry): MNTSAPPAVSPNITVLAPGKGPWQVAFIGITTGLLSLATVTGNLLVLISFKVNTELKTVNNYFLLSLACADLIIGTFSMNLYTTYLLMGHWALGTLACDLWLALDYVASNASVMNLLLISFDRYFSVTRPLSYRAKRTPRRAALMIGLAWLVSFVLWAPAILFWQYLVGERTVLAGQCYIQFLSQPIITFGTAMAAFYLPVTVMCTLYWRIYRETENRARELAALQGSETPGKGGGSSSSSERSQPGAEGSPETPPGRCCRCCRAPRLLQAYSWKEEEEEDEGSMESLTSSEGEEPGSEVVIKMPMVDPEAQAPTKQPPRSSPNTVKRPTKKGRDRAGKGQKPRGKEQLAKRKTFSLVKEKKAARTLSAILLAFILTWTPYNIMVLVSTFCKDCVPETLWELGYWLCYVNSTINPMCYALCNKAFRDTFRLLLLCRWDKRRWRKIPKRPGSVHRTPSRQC

[3] = target: Serine/threonine-protein kinase PRP4 homolog (Homo sapiens) (UniProt Q13523); settings: Compound concentration 1000.0 nM
[4] = target: Tyrosine-protein kinase JAK1 (Homo sapiens) (UniProt P23458); settings: Compound concentration 1000.0 nM
Sequence of Tyrosine-protein kinase JAK1 (Homo sapiens) (P23458 whole entry): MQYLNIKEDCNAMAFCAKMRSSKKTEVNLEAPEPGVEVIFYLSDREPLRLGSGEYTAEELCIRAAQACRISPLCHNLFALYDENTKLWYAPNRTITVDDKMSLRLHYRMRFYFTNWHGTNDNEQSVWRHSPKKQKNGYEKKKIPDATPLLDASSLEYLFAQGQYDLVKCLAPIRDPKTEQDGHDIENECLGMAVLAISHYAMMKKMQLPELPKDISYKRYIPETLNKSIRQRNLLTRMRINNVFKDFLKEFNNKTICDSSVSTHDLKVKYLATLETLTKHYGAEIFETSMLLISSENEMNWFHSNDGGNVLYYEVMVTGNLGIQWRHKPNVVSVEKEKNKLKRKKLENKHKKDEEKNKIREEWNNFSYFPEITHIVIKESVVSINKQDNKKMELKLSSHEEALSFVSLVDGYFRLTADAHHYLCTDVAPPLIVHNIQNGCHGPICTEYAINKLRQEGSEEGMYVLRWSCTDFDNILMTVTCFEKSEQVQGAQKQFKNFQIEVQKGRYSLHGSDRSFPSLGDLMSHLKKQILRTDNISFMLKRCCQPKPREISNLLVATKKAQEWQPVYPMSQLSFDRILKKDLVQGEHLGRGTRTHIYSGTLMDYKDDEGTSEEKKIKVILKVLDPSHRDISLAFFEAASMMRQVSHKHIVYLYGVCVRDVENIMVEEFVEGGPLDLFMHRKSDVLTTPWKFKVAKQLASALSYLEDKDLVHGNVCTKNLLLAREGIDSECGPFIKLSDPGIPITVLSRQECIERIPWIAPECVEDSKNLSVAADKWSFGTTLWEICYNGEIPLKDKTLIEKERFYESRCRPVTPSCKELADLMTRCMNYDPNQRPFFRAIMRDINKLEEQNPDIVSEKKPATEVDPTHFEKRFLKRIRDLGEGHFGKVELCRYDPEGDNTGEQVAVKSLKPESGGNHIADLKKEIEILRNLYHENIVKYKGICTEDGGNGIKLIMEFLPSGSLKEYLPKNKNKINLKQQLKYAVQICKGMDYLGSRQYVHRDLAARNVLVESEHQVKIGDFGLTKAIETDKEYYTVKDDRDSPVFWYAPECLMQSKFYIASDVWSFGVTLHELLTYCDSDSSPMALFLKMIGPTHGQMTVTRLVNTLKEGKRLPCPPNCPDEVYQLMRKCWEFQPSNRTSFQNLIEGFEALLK

[5] = target: Cyclin-dependent kinase 18 (Homo sapiens) (UniProt Q07002); settings: Compound concentration 1000.0 nM
[6] = tested on: Proto-oncogene tyrosine-protein kinase receptor Ret (Homo sapiens), P07949 [M918T]; settings: Compound concentration 1000.0 nM
[7] = target: Non-receptor tyrosine-protein kinase TNK1 (Homo sapiens) (UniProt Q13470); settings: Compound concentration 1000.0 nM
[8] = target: Tyrosine-protein kinase JAK1 (Homo sapiens) (UniProt P23458); settings: Compound concentration 1000.0 nM; remark: listed apart in the source
[9] = target: Serine/threonine-protein kinase DCLK3 (Homo sapiens) (UniProt Q9C098); settings: Compound concentration 1000.0 nM
[10] = target: Focal adhesion kinase 1 (Homo sapiens) (UniProt Q05397); settings: Compound concentration 1000.0 nM
Sequence of Focal adhesion kinase 1 (Homo sapiens) (Q05397 2-1052 limits assumed): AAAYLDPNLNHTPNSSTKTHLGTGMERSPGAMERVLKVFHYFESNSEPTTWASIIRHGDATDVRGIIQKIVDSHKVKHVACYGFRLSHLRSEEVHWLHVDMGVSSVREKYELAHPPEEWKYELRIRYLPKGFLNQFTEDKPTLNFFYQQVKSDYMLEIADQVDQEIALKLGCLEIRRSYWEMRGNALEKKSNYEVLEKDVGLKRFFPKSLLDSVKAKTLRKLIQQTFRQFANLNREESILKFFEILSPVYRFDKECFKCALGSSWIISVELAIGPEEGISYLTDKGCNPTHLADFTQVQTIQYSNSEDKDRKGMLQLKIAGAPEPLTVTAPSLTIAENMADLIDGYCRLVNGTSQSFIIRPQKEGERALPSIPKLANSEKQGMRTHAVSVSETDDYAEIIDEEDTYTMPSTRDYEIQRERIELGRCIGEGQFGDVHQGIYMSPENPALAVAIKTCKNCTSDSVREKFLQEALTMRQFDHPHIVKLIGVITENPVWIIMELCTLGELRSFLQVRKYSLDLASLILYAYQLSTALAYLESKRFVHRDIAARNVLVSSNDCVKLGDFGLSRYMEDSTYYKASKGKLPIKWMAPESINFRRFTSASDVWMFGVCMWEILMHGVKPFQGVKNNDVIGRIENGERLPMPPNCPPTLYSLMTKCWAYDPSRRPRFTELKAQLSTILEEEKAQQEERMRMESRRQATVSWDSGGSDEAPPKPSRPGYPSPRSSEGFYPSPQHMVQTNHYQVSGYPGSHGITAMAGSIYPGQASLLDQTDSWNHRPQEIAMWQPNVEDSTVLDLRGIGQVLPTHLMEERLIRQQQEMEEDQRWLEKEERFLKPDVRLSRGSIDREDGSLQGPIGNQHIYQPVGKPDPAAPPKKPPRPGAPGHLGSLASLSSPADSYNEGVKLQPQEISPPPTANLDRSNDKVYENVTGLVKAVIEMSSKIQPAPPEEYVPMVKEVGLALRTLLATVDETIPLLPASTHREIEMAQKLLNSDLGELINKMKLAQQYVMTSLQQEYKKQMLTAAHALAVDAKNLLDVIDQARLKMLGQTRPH

[11] = target: Serine/threonine-protein kinase 17A (Homo sapiens) (UniProt Q9UEE5); settings: Compound concentration 1000.0 nM
[12] = target: Serine/threonine-protein kinase Chk1 (Homo sapiens) (UniProt O14757); settings: Compound concentration 1000.0 nM
[13] = tested on: Receptor-type tyrosine-protein kinase FLT3 (Homo sapiens), P36888 [D835V]; settings: Compound concentration 1000.0 nM
[14] = tested on: Phosphatidylinositol 4,5-bisphosphate 3-kinase catalytic subunit alpha isoform (Homo sapiens), P42336 [I800L]; settings: Compound concentration 1000.0 nM
[15] = target: Beta-2 adrenergic receptor (Homo sapiens) (UniProt P07550); assay: beta2 (h) Eurofins-Cerep Cellular and Nuclear Receptor Functional Assays; settings: Compound concentration 10.0 uM
Sequence of Beta-2 adrenergic receptor (Homo sapiens) (P07550 whole entry, looked up): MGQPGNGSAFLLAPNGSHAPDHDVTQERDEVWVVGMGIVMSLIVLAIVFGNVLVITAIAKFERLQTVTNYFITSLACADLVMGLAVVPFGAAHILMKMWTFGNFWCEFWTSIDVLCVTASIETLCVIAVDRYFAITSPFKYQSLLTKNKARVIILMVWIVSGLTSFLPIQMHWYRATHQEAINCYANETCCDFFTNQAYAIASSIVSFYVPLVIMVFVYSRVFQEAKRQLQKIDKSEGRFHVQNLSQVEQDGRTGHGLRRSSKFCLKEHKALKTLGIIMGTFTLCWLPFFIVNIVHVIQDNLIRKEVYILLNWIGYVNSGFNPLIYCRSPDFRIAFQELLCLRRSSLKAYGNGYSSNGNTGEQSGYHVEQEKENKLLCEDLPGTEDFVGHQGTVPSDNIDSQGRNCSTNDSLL

[16] = target: Mitogen-activated protein kinase kinase kinase 2 (Homo sapiens) (UniProt Q9Y2U5); settings: Compound concentration 1000.0 nM
[17] = target: Rhodopsin kinase GRK7 (Homo sapiens) (UniProt Q8WTQ7); settings: Compound concentration 1000.0 nM
[18] = target: STE20/SPS1-related proline-alanine-rich protein kinase (Homo sapiens) (UniProt Q9UEW8); settings: Compound concentration 1000.0 nM
[19] = target: Serine/threonine-protein kinase 10 (Homo sapiens) (UniProt O94804); settings: Compound concentration 1000.0 nM
[20] = target: Serine/threonine-protein kinase WNK3 (Homo sapiens) (UniProt Q9BYP7); settings: Compound concentration 1000.0 nM
[21] = target: Receptor-type tyrosine-protein kinase FLT3 (Homo sapiens) (UniProt P36888); settings: Compound concentration 1000.0 nM
[22] = target: Beta-1 adrenergic receptor (Homo sapiens) (UniProt P08588); assay: beta1 (h) Eurofins-Cerep Cellular and Nuclear Receptor Functional Assays; settings: Compound concentration 10.0 uM
Sequence of Beta-1 adrenergic receptor (Homo sapiens) (P08588 whole entry, looked up): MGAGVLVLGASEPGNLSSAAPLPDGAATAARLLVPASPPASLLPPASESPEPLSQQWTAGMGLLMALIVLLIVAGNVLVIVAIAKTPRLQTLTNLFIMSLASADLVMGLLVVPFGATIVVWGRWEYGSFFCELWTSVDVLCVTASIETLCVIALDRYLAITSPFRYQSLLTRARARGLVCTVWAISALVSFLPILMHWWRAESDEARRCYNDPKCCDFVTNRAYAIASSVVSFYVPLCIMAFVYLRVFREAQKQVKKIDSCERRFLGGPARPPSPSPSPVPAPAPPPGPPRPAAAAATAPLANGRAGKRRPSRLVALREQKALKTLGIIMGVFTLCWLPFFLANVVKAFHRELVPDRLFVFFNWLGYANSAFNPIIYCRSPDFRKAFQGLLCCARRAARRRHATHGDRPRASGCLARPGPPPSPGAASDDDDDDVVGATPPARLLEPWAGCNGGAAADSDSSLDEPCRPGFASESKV

[23] = target: Macrophage colony-stimulating factor 1 receptor (Homo sapiens) (UniProt P07333); settings: Compound concentration 1000.0 nM
[24] = target: Serine/threonine-protein kinase WNK2 (Homo sapiens) (UniProt Q9Y3S1); settings: Compound concentration 1000.0 nM
[25] = target: Leukocyte tyrosine kinase receptor (Homo sapiens) (UniProt P29376); settings: Compound concentration 1000.0 nM
[26] = target: Atypical kinase COQ8B, mitochondrial (Homo sapiens) (UniProt Q96D53); settings: Compound concentration 1000.0 nM
[27] = target: 5-hydroxytryptamine receptor 2B (Homo sapiens) (UniProt P41595); settings: Compound concentration 10.0 uM
[28] = target: Inhibitor of nuclear factor kappa-B kinase subunit beta (Homo sapiens) (UniProt O14920); settings: Compound concentration 1000.0 nM
[29] = target: Cyclin-dependent kinase 16 (Homo sapiens) (UniProt Q00536); settings: Compound concentration 1000.0 nM
Sequence of Cyclin-dependent kinase 16 (Homo sapiens) (Q00536 whole entry): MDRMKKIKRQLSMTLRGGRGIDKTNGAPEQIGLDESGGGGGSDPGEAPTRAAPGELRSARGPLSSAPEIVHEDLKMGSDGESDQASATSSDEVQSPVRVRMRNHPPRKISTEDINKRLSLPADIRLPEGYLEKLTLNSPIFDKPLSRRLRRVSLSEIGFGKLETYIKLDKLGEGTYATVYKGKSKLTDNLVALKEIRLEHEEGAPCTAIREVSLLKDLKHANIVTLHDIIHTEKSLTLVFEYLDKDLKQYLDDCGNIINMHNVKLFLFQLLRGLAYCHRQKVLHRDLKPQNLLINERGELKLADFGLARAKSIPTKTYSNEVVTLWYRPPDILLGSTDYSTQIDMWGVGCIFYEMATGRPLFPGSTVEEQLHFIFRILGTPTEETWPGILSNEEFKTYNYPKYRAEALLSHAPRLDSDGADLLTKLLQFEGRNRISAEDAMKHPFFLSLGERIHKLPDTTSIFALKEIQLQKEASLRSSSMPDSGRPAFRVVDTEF

[30] = target: Calcium/calmodulin-dependent protein kinase type II subunit delta (Homo sapiens) (UniProt Q13557); settings: Compound concentration 1000.0 nM
[31] = target: Phosphorylase b kinase regulatory subunit alpha, liver isoform (Homo sapiens) (UniProt P46019); settings: Compound concentration 1000.0 nM
[32] = target: Tyrosine-protein kinase Mer (Homo sapiens) (UniProt Q12866); settings: Compound concentration 1000.0 nM
Sequence of Tyrosine-protein kinase Mer (Homo sapiens) (Q12866 whole entry): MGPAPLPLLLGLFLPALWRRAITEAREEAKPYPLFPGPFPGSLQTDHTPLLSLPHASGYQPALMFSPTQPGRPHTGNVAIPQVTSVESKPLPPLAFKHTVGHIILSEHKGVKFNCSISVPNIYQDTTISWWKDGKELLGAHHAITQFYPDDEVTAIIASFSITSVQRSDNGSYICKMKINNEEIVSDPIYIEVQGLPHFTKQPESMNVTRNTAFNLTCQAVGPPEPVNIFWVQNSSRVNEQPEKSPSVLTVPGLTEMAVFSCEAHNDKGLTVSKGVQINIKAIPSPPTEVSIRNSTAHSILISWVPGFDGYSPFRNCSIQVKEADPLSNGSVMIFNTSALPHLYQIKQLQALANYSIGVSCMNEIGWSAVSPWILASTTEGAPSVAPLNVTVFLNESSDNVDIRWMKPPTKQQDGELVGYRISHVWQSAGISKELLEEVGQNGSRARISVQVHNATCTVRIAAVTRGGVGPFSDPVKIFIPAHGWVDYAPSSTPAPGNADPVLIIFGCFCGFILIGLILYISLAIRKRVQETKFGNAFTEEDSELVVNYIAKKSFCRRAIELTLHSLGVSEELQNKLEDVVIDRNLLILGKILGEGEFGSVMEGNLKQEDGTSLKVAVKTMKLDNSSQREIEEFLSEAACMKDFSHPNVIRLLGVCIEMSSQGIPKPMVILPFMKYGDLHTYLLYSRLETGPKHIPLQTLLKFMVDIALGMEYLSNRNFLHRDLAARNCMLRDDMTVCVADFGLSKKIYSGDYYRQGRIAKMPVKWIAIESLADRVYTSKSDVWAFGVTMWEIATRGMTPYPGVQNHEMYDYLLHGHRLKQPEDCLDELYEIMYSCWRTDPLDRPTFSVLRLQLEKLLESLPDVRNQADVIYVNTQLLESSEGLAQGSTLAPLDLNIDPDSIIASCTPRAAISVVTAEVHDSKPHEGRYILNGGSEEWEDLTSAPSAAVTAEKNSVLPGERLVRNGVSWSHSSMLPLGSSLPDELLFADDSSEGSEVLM

[33] = target: Serine/threonine-protein kinase Chk2 (Homo sapiens) (UniProt O96017); settings: Compound concentration 1000.0 nM
[34] = tested on: Tyrosine-protein kinase ABL1 (Homo sapiens), P00519 [M351T]; settings: Compound concentration 1000.0 nM
[35] = target: Tyrosine-protein kinase FRK (Homo sapiens) (UniProt P42685); settings: Compound concentration 1000.0 nM
[36] = target: 5'-AMP-activated protein kinase catalytic subunit alpha-1 (Homo sapiens) (UniProt Q13131); settings: Compound concentration 1000.0 nM
[37] = target: Histamine H2 receptor (Homo sapiens) (UniProt P25021); assay: H2 (h) Eurofins-Cerep Cellular and Nuclear Receptor Functional Assays; settings: Compound concentration 10.0 uM
Sequence of Histamine H2 receptor (Homo sapiens) (P25021 whole entry): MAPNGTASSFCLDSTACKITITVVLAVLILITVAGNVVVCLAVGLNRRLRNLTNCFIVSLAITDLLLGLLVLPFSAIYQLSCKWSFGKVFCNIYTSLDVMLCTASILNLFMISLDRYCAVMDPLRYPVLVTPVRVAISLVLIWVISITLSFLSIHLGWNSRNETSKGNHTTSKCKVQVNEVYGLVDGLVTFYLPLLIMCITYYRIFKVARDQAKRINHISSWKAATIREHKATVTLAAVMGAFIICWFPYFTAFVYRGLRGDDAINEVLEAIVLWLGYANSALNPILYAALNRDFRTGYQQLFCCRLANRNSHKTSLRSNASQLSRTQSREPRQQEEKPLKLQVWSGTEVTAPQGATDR

SMILES: O=C(N1CCS(=O)(=O)CC1)N1C[C@H](c2ccc(OC(F)(F)F)cc2)C[C@H](c2nc(C3CC3)no2)C1 [BAY-386]
- residual activity [1]: 100%
- % Inhibition of Control Agonist Response (Mean n=2) [2]: 57%
- % of Control Agonist Response (Mean n=2) [2]: 12.8%
- residual activity [3]: 97%
- residual activity [4]: 100%
- residual activity [5]: 0%
- residual activity [6]: 92%
- residual activity [7]: 100%
- residual activity [8]: 88%
- residual activity [9]: 100%
- residual activity [10]: 93%
- residual activity [11]: 100%
- residual activity [12]: 100%
- residual activity [13]: 100%
- residual activity [14]: 68%
- % Inhibition of Control Agonist Response (Mean n=2) [15]: -6.9%
- % of Control Agonist Response (Mean n=2) [15]: -1.7%
- residual activity [16]: 100%
- residual activity [17]: 100%
- residual activity [18]: 100%
- residual activity [19]: 100%
- residual activity [20]: 99%
- residual activity [21]: 96%
- % Inhibition of Control Agonist Response (Mean n=2) [22]: -0.2%
- % of Control Agonist Response (Mean n=2) [22]: 3.4%
- residual activity [23]: 100%
- residual activity [24]: 73%
- residual activity [25]: 100%
- residual activity [26]: 73%
- inhibition [27]: 17.1%
- residual activity [28]: 77%
- residual activity [29]: 100%
- residual activity [30]: 100%
- residual activity [31]: 100%
- residual activity [32]: 100%
- residual activity [33]: 100%
- residual activity [34]: 100%
- residual activity [35]: 100%
- residual activity [36]: 100%
- % Inhibition of Control Agonist Response (Mean n=2) [37]: 9.6%
- % of Control Agonist Response (Mean n=2) [37]: -0.7%

SMILES: Cc1noc([C@H]2C[C@@H](c3ccc(C(F)(F)F)cc3)CN(C(=O)N3CCS(=O)(=O)C3)C2)n1 [BAY-448]
- residual activity [1]: 89%
- % Inhibition of Control Agonist Response (Mean n=2) [2]: 10.2%
- % of Control Agonist Response (Mean n=2) [2]: 1.2%
- residual activity [3]: 72%
- residual activity [4]: 74%
- residual activity [5]: 97%
- residual activity [6]: 100%
- residual activity [7]: 100%
- residual activity [8]: 98%
- residual activity [9]: 100%
- residual activity [10]: 100%
- residual activity [11]: 100%
- residual activity [12]: 100%
- residual activity [13]: 91%
- residual activity [14]: 100%
- % Inhibition of Control Agonist Response (Mean n=2) [15]: 10.2%
- % of Control Agonist Response (Mean n=2) [15]: 2.3%
- residual activity [16]: 99%
- residual activity [17]: 100%
- residual activity [18]: 95%
- residual activity [19]: 100%
- residual activity [20]: 76%
- residual activity [21]: 100%
- % Inhibition of Control Agonist Response (Mean n=2) [22]: 6.8%
- % of Control Agonist Response (Mean n=2) [22]: 0.3%
- residual activity [23]: 100%
- residual activity [24]: 100%
- residual activity [25]: 100%
- residual activity [26]: 100%
- inhibition [27]: 16.8%
- residual activity [28]: 80%
- residual activity [29]: 100%
- residual activity [30]: 100%
- residual activity [31]: 100%
- residual activity [32]: 100%
- residual activity [33]: 100%
- residual activity [34]: 84%
- residual activity [35]: 100%
- residual activity [36]: 100%
- % Inhibition of Control Agonist Response (Mean n=2) [37]: -2.8%
- % of Control Agonist Response (Mean n=2) [37]: 2.6%
